Row | SMILES | melting point [°C]
1 | CN1C(=O)CCc2cccc(N3CCN(CCCCOc4ccc5c(n4)NC(=O)CCC5)CC3)c21 | 184 to 185
2 | COc1ccc(C2=NN(c3ccc(CC(=O)O)cc3)C(=O)[C@H]3CC=CC[C@@H]23)cc1OC (relative stereo) | 162
3 | COc1ccc(C(C#Cc2ccccc2)Cc2noc(C(F)(F)F)n2)cc1OC1CCCC1 (racemic) | 96 to 98
4 | O=C(O)CNC1CCc2ccc(O)cc21 (centres undefined) | 260
5 | Nc1nc2[nH]c(CCC#Cc3ccsc3C(=O)N[C@@H](CCC(=O)O)C(=O)O)cc2c(=O)[nH]1 | 177 to 178
6 | Cc1ccc(-c2ccc3c(c2)C=C(C(=O)N2CCC(N)CC2)CCO3)cc1 | 123 to 127
7 | CS(=O)CCNC(=O)c1cccc(-c2ccc3c(c2)C(c2cc(Cl)ccc2Cl)CC3)c1 (centres undefined) | 136 to 138
8 | Cc1nc2c3c(ccn2c1C)C(=O)CC(c1ccccc1)N3 (centres undefined) | 138 to 140
9 | CC(=O)Nc1cccc2c1C(=O)c1c-2n[nH]c1-c1ccccc1 | > 300
10 | CC(=O)OCc1c(Br)cccc1N1CCn2c(nc3c2CCCC3)C1=O | 205 to 206
11 | O=C(NCCO)c1cccc(-c2cccc3c2CC(Cc2cccc(C(F)(F)F)c2)O3)c1 (centres undefined) | 120 to 121
12 | NC(=O)c1ccc(C(c2ccccc2)(c2ccccc2)c2ccccc2)cn1 | 239 to 240
13 | Cc1c(C(F)F)cc(-c2ccc(S(C)(=O)=O)cc2)n1-c1ccc(F)cc1 | 136 to 138
14 | Cc1cc(C(C)(C)C)c(O)c(S(=O)(=O)Nc2ccc(C#N)cc2Cl)c1 | 101 to 105
15 | CC1(C)C(=O)Nc2ccc(-c3ccc(C#N)s3)cc21 | 255 to 256
16 | Cc1c(N)c(C)c(C(C)C)c2c1CC(C)(CN1CCC(c3ccccc3)CC1)O2 (centres undefined) | 128 to 131
17 | Cc1nc2cc(NC(=O)c3cc4cc(C(F)(F)F)cnc4n3Cc3cccc(F)c3)ccc2n1C | 263 to 265
18 | Cc1nn(-c2ccc(Cl)cc2)c(=O)[nH]1 | 218 to 219
19 | COC(=O)c1ccc(Cn2c(=O)c(C)c3sc(C(=O)NCc4ccc(F)cc4)cn3c2=O)cc1C | 179 to 180
20 | O=C1c2ccccc2C(=O)N1OCc1ccc(F)c(Oc2ccccc2)c1 | 88.2
21 | CCOC(=O)c1c(CCO)nc2cc(OC)c(OC)cc2c1-c1ccc(OC)c(OC)c1 | 150 to 151
22 | Cc1cc(C)c(CCCC(C)(C)O)c(O)c1 | 128
23 | Cc1c(-c2ccccc2)n[nH]c1OCN1CCCC1 | 88

Row | SMILES | melting point [°C]
24 | Cc1cc(-c2ccc(NS(C)(=O)=O)cc2)cc2ccc(=O)[nH]c12 | 340 to 343
25 | Cc1cccc(-c2[nH]nc(N3CCN(C)CC3)c2-c2ccncc2)c1 | 262
26 | CCOC(=O)c1cn(-c2cc(C)on2)cn1 | 142 to 143
27 | Cn1ncc(N2CCCCC2)c(-c2ccccc2C=O)c1=O | 134 to 135
28 | O=C(COC1CCCCO1)c1ccc(Cl)cc1 (centres undefined) | 57
29 | CCc1cc(F)cc2c1OCC(C)(C)CC2(O)c1ccccn1 (centres undefined) | 100
30 | CCOC(=O)NCC(=O)NNC1=NC(C)C(c2ccccc2)=NN1 (centres undefined) | 144 to 146
31 | O=C(C1CCN(S(=O)(=O)c2ccc(Br)cc2)CC1)N1CCN(c2ccncn2)CC1 | 171 to 174
32 | CCOC(=O)N1Cc2[nH]c3ccc(F)cc3c2C1 | 248 to 249
33 | CC1=C(C(=O)NC(C)(C)C)C(c2ccccc2Cl)C(C(=O)O)=C(COCCn2c(C)nc3ccccc32)N1 (centres undefined) | 187 to 188
34 | CCOc1ccc(C2=NN(CCCCBr)C(=O)[C@H]3CC=CC[C@@H]23)cc1OCC (relative stereo) | 73 to 75
35 | COc1ccccc1N1CCN(CC(O)COc2ccccc2C(=O)O)CC1 (centres undefined) | 198 to 202
36 | Cc1cc(S(=O)(=O)NCC(C)C)c2c(C)ccc(C(C)C)cc1-2 | 117 to 118
37 | O=C(NCc1cccnc1)c1cnc(N2CCN(CC3CC3)C2=O)s1 | 190 to 192
38 | Cc1c(O)cc(OC(=O)Cc2ccc(CC(=O)Oc3cc(O)c(C)c(O)c3)cc2)cc1O | 276 to 278
39 | CNC(=O)Nc1nc(C(C)c2ccc(-c3ccccc3)c(F)c2)cs1 (centres undefined) | 208 to 209
40 | CCc1nc2cnc3cc(OCc4ccccc4)ccc3c2n1CC(C)C | 127
41 | CCOCCOC(=O)C1=C(C)NC(C)=C([N+](=O)[O-])C1c1cccc([N+](=O)[O-])c1 (centres undefined) | 140
42 | CC(O)C(=O)c1ccc(C(=O)Nc2ccccc2N)c(N)c1 (centres undefined) | 198
43 | Cc1cc(NC(=O)c2ccc(F)cc2)c(C)cc1N | 174 to 176
44 | C=Cc1cc(Br)c(O)c(Br)c1 | 75
45 | CC(=O)NCCn1c(=O)[nH]c2ccccc21 | 153
46 | CC(C)(C)C1=CC(=Nc2ccc(CCC(=O)O)cc2)C=C(C(C)(C)C)C1=O | 165 to 167

Row | SMILES | melting point [°C]
47 | CS(=O)(=O)c1ccc(Cc2n[nH]c3c2c(=O)n(-c2ccccc2)c2ncccc32)cc1 | 312
48 | COc1cc(-n2c(C#N)c3n(c2=O)CCCC3)c(F)cc1Cl | 173 to 175
49 | N#CCC(=O)Nc1ccc(OCc2cccc(F)c2)cc1 | 164 to 166
50 | CCCCOc1cc(OC)ccc1C(=O)c1cccc(C(=O)O)c1 | 112 to 115
51 | c1ccc(C2CCN(CC34CC(c5ccccc53)c3ccccc34)CC2)cc1 | > 300
52 | CC(C(=O)c1ccc2[nH]ccc2c1)N1CCC(O)(c2ccccc2)CC1 (centres undefined) | 60 to 70
53 | CCCCCCCCS(=O)(=O)c1ccc(CC(N)(CO)CO)cc1 | 108 to 109
54 | Fc1ccc(CC(=S)N2CCCCC2)cc1 | 65.5 to 67.5
55 | CCc1nn(-c2ccccc2)nc1/C(C#N)=C(\OC(=O)C(C)(C)C)c1c(C)c(C)nn1C | 119
56 | O=C(O)c1ccc(-c2ccc(OCCCCO)c(-c3ccc(N4CCCC4)c(C(F)(F)F)c3)c2)cc1 | 237
57 | CC(=O)OC1CSC(Oc2cc(-c3cccnc3)ccc2Cl)C(OC(C)=O)C1OC(C)=O (centres undefined) | 155
58 | C[C@H]1CCCC(C)(C)[C@@H]1[C@@H](O)c1cccc(Cl)c1 | 58 to 60
59 | N#Cc1ccc(NC2CCN(Cc3cc(F)cc(C(F)(F)F)c3)CC2)nn1 | 151
60 | Cc1nn(C)c(-c2ccc(F)cc2)c1C=O | 130 to 131
61 | CC(=O)n1ncc(=O)[nH]c1=O | 150
62 | O=C(O)CNc1ccc2ccccc2c1 | 219 to 221
63 | CCCCCCCCCCCCCCCCCCOc1ccc([N+](=O)[O-])cc1[N+](=O)[O-] | 63.5 to 64
64 | O=Cc1cn(Cc2ccc(Cl)cc2)c2ccccc12 | 122
65 | CN(C)C=Nc1[nH]nc(Nc2cccc(Cl)c2)c1C#N | > 260
66 | CN1CCC(Oc2ccc(F)cc2C(N)=O)C1 (centres undefined) | 90 to 93
67 | OCCCCCc1ccc(OCc2coc(/C=C/c3ccccc3)n2)cc1 | 93 to 94
68 | COC(=O)c1sc2ccc(Br)cc2c1-c1ccccc1 | 125 to 126

Results, then the compound that gave them:

Row | melting point [°C] | SMILES
69 | 168 to 170 | CC(c1cccc(-c2c[nH]nn2)c1)C(O)(Cn1cncn1)c1ccc(F)cc1F (centres undefined)
70 | 192 | Cc1cc(Cl)c(-n2nc(C#N)c(-c3ccco3)c2N)c(Cl)c1
71 | 228 to 229 | CN1CCC(=O)N(c2cccc3ccccc23)C1=O
72 | 90 | CN(C(=O)COc1cc(-c2ccccc2)nc2ccccc12)C(C)(C)C
73 | 168 to 169 | O=C(O)CCc1cc2ccc(C(F)(F)F)cc2n1S(=O)(=O)c1ccccc1
74 | 115 to 117 | COC(=O)[C@H](Cc1ccccc1)NC(=O)[C@H](Cc1ccccc1)NC(=S)Cc1ccc(C)cc1
75 | 64 to 66 | CC=CC(=O)c1ccc(CCCCNC(C)=O)cc1
76 | 108 to 110 | COC(=O)C(Cl)=Cc1cc([N+](=O)[O-])ccc1Cl
77 | > 300 | Nc1ccc(C(=O)Nc2ccc(-c3c[nH]c(=O)cn3)cc2)cc1
78 | 166 to 167 | CC(C)(C)OC(=O)Nc1ccc2ccc(S(C)(=O)=O)cc2c1Br
79 | 86 to 88 | CCOC(=O)C=Cc1cc([N+](=O)[O-])c(F)cc1Cl
80 | 162 to 168 | COc1cc2c(c3c1OC(C)(C)C3)C(c1cccc(N3C(=O)c4ccccc4C3=O)c1)=NC(C)(C)C2
81 | 175 to 179 | CC(O)CNc1nc(NCc2ccccc2N)c2ncn(C(C)C)c2n1 (racemic)
82 | 225 to 227 | NC(=O)C[C@H](NC(=O)OCc1ccccc1)C(=O)N[C@@H](Cc1ccccc1)[C@H](O)C(=O)O
83 | 155 to 157 | O=C1c2cccc(O)c2NC(O)C2CCCN12 (centres undefined)
84 | 149 | O=C(c1ccc(F)cc1)C1CCN(CCCn2c(=S)[nH]c3ccccc32)CC1

Row | melting point [°C] | SMILES
85 | 140 to 141 | [N-]=[N+]=Nc1c(F)c(F)c(C(=O)O)c(F)c1F
86 | 93 to 94 | CNC(=C[N+](=O)[O-])NCCCOc1cccc(CCN(C)C)c1
87 | 263 | CC(=O)Nc1ccc(OC(C)=O)c(C(=O)Nc2cccc3[nH]ccc23)c1
88 | 102 | CCCCCC(=O)Nc1ncc(OC)cn1
89 | 145 to 147 | O=C1C(=O)c2ccccc2C2=C1SCC1(CCN(CCCCc3ccccc3)CC1)O2
90 | 103 to 104 | COc1cc(COc2cc(C=O)n(-c3ccccc3)n2)ccc1OCc1nc(-c2ccco2)oc1C
91 | 212 to 215 | Cc1ccc2cccc(OCc3c(Cl)ccc([N+](=O)[O-])c3C#N)c2n1
92 | 146 to 148 | CC(C)(C)c1cc(SCCC(=O)NCC(=O)c2ccccc2)cc(C(C)(C)C)c1O
93 | 136 to 137 | CCCCCS(=O)(=O)NC(=O)CCc1cc(C(C)(C)C)nn1Cc1ccc(C(F)(F)F)cc1Cl
94 | 76 to 78 | C(#Cc1ccccn1)CCc1nc(-c2ccc3ccccc3c2)no1
95 | 242 to 243 | Cc1nnc(-c2ccc3occ(-c4ccc5c(c4)C(C)(C)CS5(=O)=O)c3c2)o1
96 | 232 to 235 | Cc1cnc2c(c1)C(=O)CC(C)(C)C2
97 | 87 to 89 | COC(=O)[C@@H](N)CCc1nnnn1CC(=O)N[C@H](C)C(=O)OC
98 | 130 to 132 | Cc1cccc(-c2[nH]c(C(C)C)nc2-c2ccc(F)c(-c3ccc(C(=O)NC4CCOCC4)cc3)c2)n1
99 | 167 to 170 | Nc1ccc2c(c1Br)C(=O)C1(CC1)O2

— a melting point compilation (Tetko et al.; mined from patent text by program, amines drawn as free bases though some values may be those of a salt)
